Assay results as given in patent publication US12059429B2, “Hornerin: a novel non-VEGF mediated angiogenic protein expressed in both human and mouse angiogenic endothelial cells and human pancreatic cancer cells” (University of Virginia Patent Foundation, priority 2018, dated 2024).

How the values were obtained:
hornerin = test: Immunoblot of hornerin in HUVECs treated with growth factors; assay type: cell-based, human; details: 24 hours treatment; growth factors at published B-max concentrations, EGF at increasing concentrations
Protocol: HUVECs were cultured in 10 cm dishes for 24 hours prior to a change to media containing VEGF (at B-max concentration), TCM, or VC. After 24 hours treatment, the cells were washed with DPBST two times and lysed with radioimmunoprecipitation assay (RIPA) buffer (Thermo Scientific). Lysate protein concentrations were measured by the bicinchoninic acid assay (Pierce, Waltham, MA, USA) and equivalent amounts of protein were loaded into precast 4-15% tris-glycine eXtended (TGX) polyacrylamide gels (Bio-Rad, Hercules, CA, USA). The proteins were resolved by electrophoresis and transferred to nitrocellulose membranes using the iBlot system (Invitrogen, Carlsbad, CA, USA). The membranes were then washed in Tris-buffered saline+1% Tween-20 (TBST), blocked for 30 minutes in TBST+2% milk solution, and incubated overnight at 4° C. with primary antibodies anti-hornerin (Abcam, Cambridge, UK, ab78909; (1:1000)) and anti-HSP90 (Cell Signaling Technology, Danvers, MA, USA, 4877; (1:1000)). The following day the membranes were washed and subsequently incubated with the secondary antibodies anti-goat HRP (R&D Systems, Minneapolis, MN, USA, HAF109; 1:5000) and anti-rabbit HRP (GE Healthcare, NA934V; 1:5000) for 45 minutes at RT. […]
Major constituents of TCM were determined using a Human Angiogenesis Antibody Array (Affymetrix, Santa Clara, CA, USA) per manufacturer's instructions. […]

tumor vascularity = test: DCE-MRI and Ktrans measurement of L3.6pl tumors; assay type: in vivo, mouse; details: AV-951 1.0 mg/kg once daily oral gavage; AV-951 only vs control; combination vs AV-951
Protocol: To assess the in vivo function of tumor vascularity, DCE-MRI was performed on a 7.0 T Clinscan small animal imaging system (Bruker, Ettlingen, Germany) using a 30 mm inner-diameter birdcage radiofrequency coil. Mice (N=7) were imaged prior to treating tumors with Hrnr and Scr siRNA and again 6 days after treatment. Mice treated with the VEGFR inhibitor AV-951 (N=5) were image pre-siRNA treatment and 6 days posttreatment. Mice were anesthetized with 1.25% isoflurane anesthesia, which was maintained during imaging. Respiration and ECG were monitored during imaging using an MRI-compatible system (SA Instruments, Stony Brook, NY, USA). An indwelling tail vein catheter was established for administration of the gadolinium contrast agent Gd-DTPA, which is required in DCE imaging. Mice were placed supine in the imaging system, and body temperature was maintained at 36° C.±1° C. using circulating, temperature controlled water. Tumors were localized using a spin-echo imaging sequence, and an imaging plane that transected both tumors was chosen for DCE imaging.
A dual-Gd-bolus DCE-MRI acquisition strategy (Christian et al., 2004) was employed, which uses a low dose of contrast agent to accurately acquire the undistorted Gd concentration vs. time curve in the blood pool and a higher dose of contrast agent to acquire the Gd concentration vs. time curve in the tumor with high signal-to-noise ratio, since Gd-DTPA is known to have signal saturation effects at high doses in the blood pool (Christian et al., 2004). […]

tumor vasculature = test: Photoacoustic microscopy of tumor vasculature; assay type: in vivo, mouse; details: day 12
From the text: Using an established PAM system (Wang & Hu, 2012; Ning et al., 2015a; Ning et al., 2015b), the tumor vasculature was characterized in vivo. Two laser wavelengths, 532 and 559 nm, were used to simultaneously quantify microvascular diameter, oxygen saturation, and blood flow at the same spatial scale (Ning et al., 2015a). The applied optical energies were 100 and 75 nJ, which are below the maximum permissible exposure energy. Throughout the experiment, mice were maintained under anesthesia with 1.5% vaporized isoflurane and the body temperature was kept at 37° C. All experimental procedures were carried out in conformity with the laboratory animal protocol approved by the Animal Care and Use Committee at the University of Virginia.

L3.6pl PDAC cells = test: Subcutaneous L3.6pl PDAC xenograft tumor volume; assay type: in vivo, mouse
Protocol: A tumor sample size of four was determined by power analysis based on prior tumor xenograft studies. For our 80% power analysis, the difference between means was 200 mm^3, standard deviation was 100 mm^3, and P-value<0.05 (P<0.05). Tumors were measured at least twice weekly until their volume was >1000 mm^3, at which point animals were euthanized. Tumor size data were collected from each tumor, with the exception of one tumor in the combination treatment experiment that was identified with 90% confidence via Grubb's Outlier Test. The following number of mice in each treatment cohort was evaluated for tumor outgrowth: (Scr siRNA/ctrl., N=15; Hrnr siRNA/ctrl., N=14; Scr siRNA/AV-951, N=8; Hrnr siRNA/AV-951, N=8).
For tumor implantation, L3.6pl cells were grown under normal culture conditions for 72 hours prior to being trypsinized and enumerated. The cells were suspended in aliquots of 500,000 cells/50 μL Hanks Balanced Salt Solution (HBSS; Corning, Manassas, VA, USA) and 50 μL of Matrigel (BD Biosciences, San Jose, CA, USA) was added to each aliquot of cells prior to implantation. The cell-Matrigel slurry was injected subcutaneously into nu/nu mice on the flanks or orthotopically into the pancreas (Seaman et al., 2011). The injection site for subcutaneous tumors was monitored daily for growth and tumor volume was calculated form caliper measurements using the formula (width^2×length)/2.
The VEGFR inhibitor AV-951 (Selleck Chemicals, Houston, TX, USA) was suspended in 0.5% methocel+0.5% Tween-20 in HBSS to increase viscosity and 50 μL of 1.0 mg/kg AV-951 or VC solution was administered once daily by oral gavage (22-gauge gavage needle (Kent Scientific, Torrington, CT, USA) connected to a 1 mL syringe). […] To prepare Hrnr siRNA and Silencer Select Negative Control #1 Scr siRNA (Invitrogen; catalog number 4390844) for injection, 10 μg of hornerin or control siRNA were combined with in vivo-jetPEI transfection reagent (Polyplus, France) in solution with 5% glucose per Polyplus instructions (total volume 50 μL). After a 30 minutes incubation, the siRNA solutions were injected slowly into the center of the tumor. A second independent hornerin knockdown experiment was conducted using a pooled set of three unique mouse Hrnr siRNA duplexes (5′-[…]-3′ (SEQ ID NO: 50); 5 ‘-[…]-3’ (SEQ ID NO: 51); 5 ‘-[…]-3’ (SEQ ID NO: 52)) and Scr siRNA (Origene, Rockville, MD, USA). The reagent preparation and injection protocol were similar to that described above.

L3.6pl tumors = test: Ki67 and cleaved caspase 3 immunofluorescence in tumor sections; assay type: in vivo, mouse; details: day 15 tumor sections
Protocol: (§1) Vessel parameters were measured using RAVE software (Seaman et al., 2011). For detection of proliferation and apoptosis, the sections were incubated with the primary antibodies anti-Ki67 (Abcam, ab15580; 1:200) or anti-cleaved caspase 3 (Cell Signaling, 9661; 1:200), respectively, overnight at 4° C. followed by incubation with anti-rabbit AF594 (Abcam, 150080; 1:200).

tumor vessels = test: Tumor vessel parameters in L3.6pl tumor sections (CD34, ACTA2, RAVE analysis); assay type: in vivo, mouse; details: four-group combination experiment, vs control
Protocol: Following completion of the treatment schedule, the mice were killed, cardiac perfused, and the tumors were excised and fixed in formalin overnight. The tumors were paraffin embedded and cut into 5 (thin) or 50 μm (thick) sections. Tumor vessel parameters were evaluated in the following number of tumors for each treatment cohort: (Scr siRNA/ctrl., N=10; Hrnr siRNA/ctrl., N=10; Scr siRNA/AV-951, N=4; Hrnr siRNA/AV-951, N=4).
Tumor sections were deparaffinized, rehydrated, heated in antigen retrieval solution (Vector), blocked for 30 minutes in blocking buffer, and incubated with anti-CD34 antibody (Abcam, ab8158, clone MEC14.7; 1:100) in blocking buffer overnight at 4° C. The sections were then incubated with goat anti-rat FITC secondary antibody (Abcam, ab6840; 1:100) in blocking buffer prior to mounting with Prolong Gold Antifade reagent (Invitrogen). Anti-actin, α-smooth muscle Cy3 antibody (Sigma, C6198, clone 1A4; 1:200) was added to the primary antibody solution if assaying for alpha-smooth muscle actin. To compare hornerin expression in vessels and tumor tissue treated with Hrnr siRNA and Scr siRNA, thin paraffin sections were deparaffinized and stained with anti-CD34 and anti-hornerin antibodies described. Images were collected using a Nikon TE 2000-E2 microscope (Nikon Instruments) equipped with a Melles Griot Argon Laser System (Melles Griot, Carlsbad, CA, USA) and a Nikon D-Eclipse C1 confocal attachment and analyzed by Measurement Tool in Image J. To measure the relative hornerin expression in tumor vessels, three vessel segments per image were isolated and their mean intensity and area were measured and recorded. A weighted mean intensity was calculated to correct for differences in selected area. To measure the relative hornerin expression in tumor tissue, the mean intensity from three square sections (75×75 pixel) of tumor tissue per image was measured and recorded.
as §1

cleaved caspase 3 levels in tumors relative to control (L3.6pl tumors) | Molecule | hornerin expression in HUVECs (hornerin) | Ktrans values (in words) (tumor vascularity) | tumor blood hemoglobin levels (tumor vasculature) | tumor blood oxygen saturation compared to control (tumor vasculature) [fold] | tumor volume decrease compared to control-treated animals (L3.6pl PDAC cells; day 5 post implantation, 1.0 mg/kg AV-951 once daily oral gavage) [fold] | reduction in tumor volume (discussion summary) (L3.6pl PDAC cells; monotherapy or combined therapies) | number of vessels per field (tumor vessels) | vessel morphology (tumor vessels)
 | bFGF: growth factor found in TCM, added to HUVECs at published B-max concentration | might stimulate hornerin expression |  |  |  |  |  |  | 
two-fold increase | COc1cc2nccc(Oc3ccc(NC(=O)Nc4cc(C)on4)c(Cl)c3)c2cc1OC [AV-951, 1-[2-chloro-4-(6,7-dimethoxyquinolin-4-yl)oxyphenyl]-3-(5-methyl-1,2-oxazol-3-yl)urea, reference compound] |  | decrease | remained unchanged | 1.5 | 2.3 | two-fold | fewer vessels were observed | morphologically similar to control vessels
